Measurements from patent US20080051417A1, “Uses of selective cyclooxygenase-1 inhibitors” (priority 2006, published 2008).
Where two headings read alike, the source gives them in different places.

Columns and labels:
[1] = tested on: 6-keto-PGF1α (the stable metabolite of PGI2); assay: Myocardial 6-keto-PGF1α levels (ELISA) in treated rats; assay type: in vivo, Sprague-Dawley rats; settings: for effect on pioglitazone+atorvastatin increase of myocardial 6-keto-PGF1α: pioglitazone+atorvastatin pretreated rats
Experimental: (§1) Rats received the following treatment (4 rats in each group): 1) i.v. saline and oral water; 2) i.v. saline and oral aspirin 10 mg/kg; 3) i.v. saline and oral aspirin 50 mg/kg; 4) i.v. LPS and oral water; 5) i.v. LPS and oral aspirin 10 mg/kg; 6) i.v. LPS and oral aspirin 50 mg/kg; 7) i.v. LPS and oral aspirin 200 mg/kg; 8) oral pioglitazone (10 mg/kg/d) and atorvastatin (10 mg/kg/d); 9) oral pioglitazone+atorvastatin and aspirin 10 mg/kg; 10) oral pioglitazone+atorvastatin and aspirin 50 mg/kg; 11) oral pioglitazone+atorvastatin and aspirin 50 mg/kg and i.v. 1400 W, a specific iNOS inhibitor; or 12) oral pioglitazone+atorvastatin, oral water, and i.v. 1400 W, a specific iNOS inhibitor. LPS (10 mg/kg) was dissolved in 1 ml of saline and was administered intravenously 8 hours before harvesting the hearts. Aspirin was dissolved in water and administered by oral gavage 8 hours before harvesting the hearts. Atorvastatin and pioglitazone were administered by oral gavage once daily for 3 days; last dose was administered 16 hours before harvesting the hearts. 1400 W (1 mg/kg) was administered i.v. 15 minutes before harvesting the hearts. All hearts were analyzed for myocardial 15-epi-LPXA4, lipoxin A4, 6-keto-PGF1α (the stable metabolite of PGI2) and PGE2 levels.
(§2) The hearts were rapidly explanted, rinsed in cold PBS (pH 7.4), containing 0.16 mg/ml heparin to remove red blood cells and clots, frozen in liquid nitrogen and stored at −70° C. For 15-epi-LPXA4 and lipoxin A4 determination, myocardial samples from the anterior left ventricular wall were homogenized in ethanol (5 ml/g) and centrifuged at 10,000 g X15 min at 4° C. The supernatant was diluted with water and acidified to pH 3.5 with 1N HCl. The sample was loaded into C-18 Sep-Pak light column (Waters Corporation, Milford, Mass.) and washed with 1 ml of water followed by 1 ml of petroleum ether. The sample was eluted with 2 ml of methyl formate. The methyl formate was evaporated with N2 and the residue was dissolved in extraction buffer. The manufacturer instruction of the ELISA Kits was followed. For myocardial 6-keto-PGF1α and PGE2 levels myocardial samples were homogenized in RIPA lysis buffer with 10% proteinase inhibitor (Sigma) and centrifuged. The supernatants were collected and stored on ice. Measurement of 6-keto-PGF1α (the stable hydrolysis product of PGI2) and PGE2 were performed as instructed by the manufacturer.

COX2 [2] = assay: Biotin switch assay and COX2 immunoblot of myocardial samples; assay type: in vivo, rats; settings: compared with the pioglitazone+atorvastatin group
Experimental: S-nitrosylation of COX2 was determined by the biotin switch method as previously described (Atar et al., 2006). Briefly, myocardial samples from the left ventricular wall of rats treated with lipopolysaccharide (group 4) and pioglitazone+atorvastain (group 8) were homogenized in HEN buffer (25 mM HEPES (pH 7.7)-0.1 mM EDTA-0.01 mM necuproine). The supernatant containing membrane fragments and the cytosolic protein were recovered. The samples were incubated for 30 mins at 4° C. with blocking solution containing HEN buffer, 0.1% SDS and 20 mM N-ethylmaleimide (NEM) to block free thiols.
Lysates were centrifuged at 16,000×g for 10 min at 4° C. Cold acetone was added to precipitate the proteins. The pellets were resuspended in HEN buffer with 1% SDS, with 20 mM sodium ascorbate added to decompose the SNO bonds. The resulting free thiols in the sample were reacted with 0.05 mM biotinylating agent, biocytin (MPB) for 30 mins at room temperature. The excess MPB was removed by additional protein precipitation in cold acetone. COX2 was immunoprecipitated with anti-COX2 polyclonal antibody. […] The biotinylated COX2 protein was detected with horseradish peroxidase-linked streptavidin. […] The signal densities of the biotinylated COX2 and total COX2 were quantified by an image-scanning densitometer and the ratio of the densities was calculated for each animal.

PGE2 = assay: Myocardial PGE2 levels (ELISA) in treated rats; assay type: in vivo, Sprague-Dawley rats; settings: for myocardial PGE2 levels: mean ±SEM; for effect on pioglitazone+atorvastatin increase of myocardial PGE2: pioglitazone+atorvastatin pretreated rats
Experimental: as §1, §2

15-epi-LPXA4 [3] = assay: Myocardial 15-epi-LPXA4 levels (ELISA) in treated rats; assay type: in vivo, Sprague-Dawley rats; settings: for effect on myocardial 15-epi-LPXA4 levels: 8 h before harvest; for effect on pioglitazone+atorvastatin induction of myocardial 15-epi-LPXA4: pioglitazone+atorvastatin pretreated rats
Experimental: as §1, §2

lipoxin A4 = assay: Myocardial lipoxin A4 levels (ELISA) in treated rats; assay type: in vivo, Sprague-Dawley rats; settings: for effect on pioglitazone+atorvastatin effect on myocardial lipoxin A4: pioglitazone+atorvastatin pretreated rats
Experimental: as §1, §2

15-epi-LPXA4 [4] = settings: cited from earlier work; for effect on pioglitazone+atorvastatin effect on myocardial 15-epi-LPXA4 levels: rats treated with pioglitazone+atorvastatin
COX2 [5] = settings: intravenous 1400 W, same dose as herein; 3-day pretreatment with atorvastatin 10 mg/kg/d; cited from earlier work
15-epi-LXA4 = settings: normal human volunteers, cited from earlier work
[6] = Infarct size after 30 minute coronary artery occlusion; assay type: in vivo; settings: aspirin 20 mg/kg i.v. at end of 30 minute coronary artery occlusion; 3-day atorvastatin pretreatment

lipopolysaccharide [LPS]
myocardial 6-keto-PGF1α levels ([1]; LPS alone, p<0.001 versus control, mean ±SEM): 80.56 ± 0.21 pg/mg | total COX2 immunoblot signal intensity (COX2 [2]): stronger | myocardial PGE2 levels (PGE2; LPS alone, p<0.001 versus control): 70.31±0.26 | effect on myocardial 15-epi-LPXA4 levels (15-epi-LPXA4 [3]; LPS 10 mg/kg i.v. alone): increased | effect on myocardial lipoxin A4 levels (lipoxin A4; LPS alone): small increase

CC(c1cc2ccccc2s1)N(O)C(N)=O (stereo not shown) [zileuton]
effect on pioglitazone+atorvastatin effect on myocardial 15-epi-LPXA4 levels (15-epi-LPXA4 [4]): blocked

CC(=N)NCc1cccc(CN)c1 [1400 W]
effect on augmentation of COX2 activity by atorvastatin (COX2 [5]): blocked | effect on pioglitazone+atorvastatin increase of myocardial 6-keto-PGF1α ([1]; 1400 W): attenuated | effect on pioglitazone+atorvastatin increase of myocardial PGE2 (PGE2; 1400 W): completely blocked | effect on pioglitazone+atorvastatin induction of myocardial 15-epi-LPXA4 (15-epi-LPXA4 [3]; 1400 W 1 mg/kg i.v. alone): partially blocked | effect on pioglitazone+atorvastatin effect on myocardial lipoxin A4 (lipoxin A4; 1400 W alone): not attenuated

Cc1onc(-c2ccccc2)c1-c1ccc(S(N)(=O)=O)cc1 [valdecoxib]
effect on pioglitazone+atorvastatin effect on myocardial 15-epi-LPXA4 levels (15-epi-LPXA4 [4]): blocked

CC(C)c1c(C(=O)Nc2ccccc2)c(-c2ccccc2)c(-c2ccc(F)cc2)n1CC[C@@H](O)C[C@@H](O)CC(=O)O [atorvastatin]
effect on myocardial 15-epi-LPXA4 levels (15-epi-LPXA4 [4]; 3 days oral 5 and 10 mg/kg/d, but not 2 mg/kg/d, each drug alone): increased

CC(=O)Oc1ccccc1C(=O)O [Aspirin]
effect on 15-epi-LXA4 (15-epi-LXA4; 650 mg/d): did not increase | blood levels of 15ELX at 81 mg/d compared with 325 mg/d (15-epi-LXA4): greater | myocardial 6-keto-PGF1α levels ([1]; LPS + aspirin 10 mg/kg, p<0.001 versus LPS alone, mean ±SEM): 76.70 ± 0.25 pg/mg | myocardial 6-keto-PGF1α levels ([1]; LPS + aspirin 50 mg/kg, p<0.001 versus LPS alone, mean ±SEM): 27.66 ± 0.23 pg/mg | myocardial 6-keto-PGF1α levels ([1]; LPS + aspirin 200 mg/kg, p<0.001 versus LPS alone, mean ±SEM): 25.39 ± 0.22 pg/mg | myocardial 6-keto-PGF1α levels ([1]; aspirin alone 10 mg/kg, p=0.48 versus control): 22.35 pg/mg | myocardial 6-keto-PGF1α levels ([1]; aspirin alone 50 mg/kg, p=0.001 versus control, mean ±SEM): 20.97 ± 0.51 pg/mg | effect on pioglitazone+atorvastatin increase of myocardial 6-keto-PGF1α ([1]; aspirin 10 mg/kg): attenuated | effect on pioglitazone+atorvastatin increase of myocardial 6-keto-PGF1α ([1]; aspirin 50 mg/kg): attenuated | myocardial PGE2 levels (PGE2; LPS + aspirin 10 mg/kg, p<0.001 versus LPS alone): 48.70 ± 3.02 pg/mg | myocardial PGE2 levels (PGE2; LPS + aspirin 50 mg/kg, p<0.001 versus LPS alone): 41.68 ± 0.24 pg/mg | myocardial PGE2 levels (PGE2; LPS + aspirin 200 mg/kg, p<0.001 versus LPS alone): 33.72 ± 0.46 pg/mg | myocardial PGE2 levels (PGE2; aspirin alone 10 mg/kg, not significant versus control): 34.48 ± 0.21 pg/mg | myocardial PGE2 levels (PGE2; aspirin alone 50 mg/kg, not significant versus control): 33.68 ± 0.24 pg/mg | effect on pioglitazone+atorvastatin increase of myocardial PGE2 (PGE2; aspirin 10 mg/kg): attenuated | effect on pioglitazone+atorvastatin increase of myocardial PGE2 (PGE2; aspirin 50 mg/kg): completely blocked | effect on myocardial 15-epi-LPXA4 levels (15-epi-LPXA4 [3]; aspirin alone, oral 10 mg/kg): no effect | effect on myocardial 15-epi-LPXA4 levels (15-epi-LPXA4 [3]; aspirin alone, oral 50 mg/kg): no effect | effect on LPS induction of myocardial 15-epi-LPXA4 (15-epi-LPXA4 [3]; i.v. LPS + oral aspirin 10 mg/kg, p=0.08 versus LPS alone): did not significantly alter | effect on LPS induction of myocardial 15-epi-LPXA4 (15-epi-LPXA4 [3]; i.v. LPS + oral aspirin 50 mg/kg, p<0.001 versus LPS alone): augmented | effect on LPS induction of myocardial 15-epi-LPXA4 (15-epi-LPXA4 [3]; i.v. LPS + oral aspirin 200 mg/kg, p<0.001 versus LPS alone): augmented | effect on pioglitazone+atorvastatin induction of myocardial 15-epi-LPXA4 (15-epi-LPXA4 [3]; aspirin 10 mg/kg): attenuated | effect on pioglitazone+atorvastatin induction of myocardial 15-epi-LPXA4 (15-epi-LPXA4 [3]; aspirin 50 mg/kg): completely blocked | effect on infarct size limiting effect of atorvastatin [6]: completely abrogated | effect on LPS effect on myocardial lipoxin A4 (lipoxin A4; LPS + aspirin 10 mg/kg): did not alter | effect on LPS effect on myocardial lipoxin A4 (lipoxin A4; LPS + aspirin 50 mg/kg): did not alter | effect on LPS effect on myocardial lipoxin A4 (lipoxin A4; LPS + aspirin 200 mg/kg, p<0.001 versus each of the other groups): augmented | effect on myocardial lipoxin A4 (lipoxin A4; aspirin alone, 10 mg/kg): did not affect | effect on myocardial lipoxin A4 (lipoxin A4; aspirin alone, 50 mg/kg): did not affect | effect on pioglitazone+atorvastatin effect on myocardial lipoxin A4 (lipoxin A4; aspirin alone): not attenuated
